Assay results: ChEMBL document CHEMBL1201862, “PubChem BioAssay data set” (2004)
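Exposure lasted 48 hours, with cells grown in 96-well plates and compounds tested at five concentrations. Abbreviation: GI50, concentration required for 50% inhibition of growth.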 Active and inactive are the calls of the source. No stated cut-off is given here; in the data, active = GI50 up to about 1.1 µM and inactive = higher.

Assays:
Assay in all cases: NCI tumour cell line growth inhibition, 48 h
A498 = test system: A498
BT-549 = test system: BT-549
CCRF-CEM = test system: CCRF-CEM
COLO 205 = test system: COLO 205
HCT-15 = test system: HCT-15
HL-60 = test system: HL-60
HOP-62 = test system: HOP-62
Hs-578T = test system: Hs-578T
MCF7 = test system: MCF7
MDA-MB-231 = test system: MDA-MB-231
MDA-MB-435 = test system: MDA-MB-435
RPMI-8226 = test system: RPMI-8226
RXF 393 = test system: RXF 393
SF-268 = test system: SF-268
SF-295 = test system: SF-295
SF-539 = test system: SF-539
SN12C = test system: SN12C
SNB-19 = test system: SNB-19
SW-620 = test system: SW-620
SNB-75 = test system: SNB-75

| SMILES | GI50 (A498) | GI50 (BT-549) | GI50 (CCRF-CEM) | GI50 (COLO 205) | GI50 (HCT-15) | GI50 (HL-60) | GI50 (HOP-62) | GI50 (Hs-578T) | GI50 (MCF7) | GI50 (MDA-MB-231) | GI50 (MDA-MB-435) | GI50 (RPMI-8226) | GI50 (RXF 393) | GI50 (SF-268) | GI50 (SF-295) | GI50 (SF-539) | GI50 (SN12C) | GI50 (SNB-19) | GI50 (SW-620) | GI50 (SNB-75) |
| --- | --- | --- | --- | --- | --- | --- | --- | --- | --- | --- | --- | --- | --- | --- | --- | --- | --- | --- | --- | --- |
| Nc1nc(-c2ccc3ccccc3c2)cc(-c2cc(-c3ccc4ccccc4c3)nc(N)n2)n1 | > 100 µM (inactive) | > 100 µM (inactive) | > 100 µM (inactive) | > 100 µM (inactive) | > 100 µM | > 100 µM (inactive) | > 100 µM (inactive) | > 100 µM (inactive) | > 100 µM (inactive) | > 100 µM (inactive) | > 100 µM (inactive) | > 100 µM (inactive) | > 100 µM (inactive) | > 100 µM (inactive) | > 100 µM (inactive) | > 100 µM (inactive) | > 100 µM (inactive) | > 100 µM (inactive) | > 100 µM (inactive) |  |
| Cc1c(Cl)cc(C(C)(C)C)c(O)c1Cc1c(C)c(Cl)cc(C(C)(C)C)c1O | 1.26 µM (inactive) | 2.81 µM (inactive) | 0.303 µM (active) | 1.12 µM (active) | 2.21 µM | 1.17 µM (inactive) | 2.96 µM (inactive) | 0.635 µM (active) | 1 µM (active) | 1.65 µM (inactive) | 2.06 µM (inactive) | 0.273 µM (active) | 0.9 µM (active) | 1.74 µM (inactive) | 2.07 µM (inactive) | 1.97 µM (inactive) | 1.87 µM (inactive) | 1.8 µM (inactive) | 1.81 µM (inactive) | 1.5 µM (inactive) |
| COc1ccc(/C=C/c2cnc3ccccc3n2)cc1OC | 45.7 µM (inactive) | 57.1 µM (inactive) | > 100 µM (inactive) | 72.1 µM (inactive) | 37 µM | 47.2 µM (inactive) | 68.1 µM (inactive) | 89.3 µM (inactive) | 54.5 µM (inactive) | 99.8 µM (inactive) | 44.1 µM (inactive) | 71.6 µM (inactive) | > 100 µM (inactive) | > 100 µM (inactive) | 52.8 µM (inactive) | > 100 µM (inactive) | 52.7 µM (inactive) |  | > 100 µM (inactive) | 63.8 µM (inactive) |
| OCCNCCN1CCN(CCCN2c3ccccc3Sc3ccc(C(F)(F)F)cc32)CC1 | > 100 µM (inactive) | 85.9 µM (inactive) | > 100 µM (inactive) | 18.2 µM (inactive) | 19.7 µM | > 100 µM (inactive) | 21.4 µM (inactive) | 47.3 µM (inactive) | 23.6 µM (inactive) | 20.9 µM (inactive) | 18.8 µM (inactive) | > 100 µM (inactive) | 26.3 µM (inactive) | 24.5 µM (inactive) | 20.4 µM (inactive) | 20.2 µM (inactive) | 18.2 µM (inactive) | 24.7 µM (inactive) | 19.2 µM (inactive) |  |
| COc1cc2c(cc1OC)C(=O)N(NC1=NCCN1)C2=O | > 100 µM (inactive) | > 100 µM (inactive) | > 100 µM (inactive) | > 100 µM (inactive) | > 100 µM | > 100 µM (inactive) | > 100 µM (inactive) | > 100 µM (inactive) | > 100 µM (inactive) | > 100 µM (inactive) | > 100 µM (inactive) | > 100 µM (inactive) | > 100 µM (inactive) | > 100 µM (inactive) | > 100 µM (inactive) | > 100 µM (inactive) | > 100 µM (inactive) | > 100 µM (inactive) | > 100 µM (inactive) |  |
| CC(C)CNc1nc2ncnc(N)c2[nH]1 | > 100 µM (inactive) | > 100 µM (inactive) | > 100 µM (inactive) | > 100 µM (inactive) | > 100 µM | < 0.01 µM (active) | > 100 µM (inactive) | > 100 µM (inactive) | > 100 µM (inactive) | > 100 µM (inactive) | > 100 µM (inactive) | > 100 µM (inactive) | > 100 µM (inactive) | > 100 µM (inactive) | > 100 µM (inactive) | > 100 µM (inactive) | > 100 µM (inactive) | > 100 µM (inactive) | > 100 µM (inactive) |  |
| CSC1=N/C(=C\c2c[nH]c3ccccc23)C(=O)N1 | 38.1 µM (inactive) | > 100 µM (inactive) | > 100 µM (inactive) | 63 µM (inactive) | 75.3 µM | 18.3 µM (inactive) | 76.9 µM (inactive) | 43.4 µM (inactive) | 28.8 µM (inactive) | 52.6 µM (inactive) | 55.2 µM (inactive) | 77.4 µM (inactive) | 92.7 µM (inactive) | 71 µM (inactive) |  | > 100 µM (inactive) | > 100 µM (inactive) | > 100 µM (inactive) | > 100 µM (inactive) | 27.7 µM (inactive) |
| Cc1cccc(-c2nc3ccc([N+](=O)[O-])cc3c(=O)o2)c1 | 28.6 µM (inactive) | 51.4 µM (inactive) | 27.8 µM (inactive) | > 100 µM (inactive) | 74.3 µM | 59.7 µM (inactive) | 46.1 µM (inactive) | 22 µM (inactive) | 62.5 µM (inactive) | > 100 µM (inactive) | 89.7 µM (inactive) | 45.6 µM (inactive) | > 100 µM (inactive) | 60.3 µM (inactive) | 36.1 µM (inactive) | 27.9 µM (inactive) | 72.3 µM (inactive) |  | 73.3 µM (inactive) | > 100 µM (inactive) |
| C=CC1=C(C)c2cc3[nH]c(c4c5nc(cc6[nH]c(cc1n2)c(C=O)c6CC)C(C)=C5C(=O)[C@@H]4C(=O)OC)[C@@H](CCC(=O)O)[C@@H]3C | > 100 µM (inactive) | > 100 µM (inactive) | 31.3 µM (inactive) | 95.7 µM (inactive) | 35.6 µM | 42.6 µM (inactive) |  | > 100 µM (inactive) | > 100 µM (inactive) | 28 µM (inactive) | > 100 µM (inactive) |  | 1.79 µM (inactive) | 24.4 µM (inactive) | 45 µM (inactive) | 39.6 µM (inactive) | > 100 µM (inactive) | > 100 µM (inactive) | 66.5 µM (inactive) | 2.54 µM (inactive) |
| Cc1ccc(C(=O)/C=C(\O)C(=O)NN=C(c2ccccc2)c2ccccc2)cc1 | > 100 µM (inactive) | 47.9 µM (inactive) | 29.2 µM (inactive) | 40.4 µM (inactive) | 39 µM | 13.9 µM (inactive) |  | 56.9 µM (inactive) | 54.6 µM (inactive) | > 100 µM (inactive) | > 100 µM (inactive) | 26.6 µM (inactive) | > 100 µM (inactive) | > 100 µM (inactive) | 66.8 µM (inactive) | > 100 µM (inactive) |  | 58.9 µM (inactive) | 50.5 µM (inactive) | 82.4 µM (inactive) |
| COC(=O)C1=C(C)NC(C)=C([N+](=O)[O-])C1c1cccc(NO)c1 (stereo unspecified) | 6.24 µM (inactive) | 4.51 µM (inactive) | 2.34 µM (inactive) | 2.06 µM (inactive) | 2.84 µM | 2.8 µM (inactive) | 9.44 µM (inactive) | 2.84 µM (inactive) | 3.94 µM (inactive) | 3.64 µM (inactive) | 1.98 µM (inactive) | 2.51 µM (inactive) | 6.5 µM (inactive) | 6.01 µM (inactive) | 3.79 µM (inactive) | 6.11 µM (inactive) | 4.75 µM (inactive) | 6.65 µM (inactive) | 4.17 µM (inactive) | 6.89 µM (inactive) |
| CCOC(=O)c1cn2c(n1)sc1cc(Cl)cc(Cl)c12 | > 100 µM (inactive) | > 100 µM (inactive) | > 100 µM (inactive) | > 100 µM (inactive) | > 100 µM |  | > 100 µM (inactive) | > 100 µM (inactive) | > 100 µM (inactive) | > 100 µM (inactive) | > 100 µM (inactive) | > 100 µM (inactive) | > 100 µM (inactive) | > 100 µM (inactive) | > 100 µM (inactive) | > 100 µM (inactive) | > 100 µM (inactive) | > 100 µM (inactive) | > 100 µM (inactive) | > 100 µM (inactive) |
| CCOc1cc(C2SCC(=O)N2c2ccc3c(c2)Oc2c(Cl)c4c(c(Cl)c2=N3)Oc2cc(N3C(=O)CSC3c3ccc(O)c(OCC)c3)ccc2N=4)ccc1O (stereo unspecified) | 58.5 µM (inactive) | 21.7 µM (inactive) |  |  | 43.1 µM | 1.68 µM (inactive) | 31.6 µM (inactive) | 73.5 µM (inactive) | 33.3 µM (inactive) | 34.1 µM (inactive) | 35.1 µM (inactive) | 31.8 µM (inactive) | 21.3 µM (inactive) | 21.4 µM (inactive) | 38.9 µM (inactive) | 14.9 µM (inactive) |  |  | 54.7 µM (inactive) | 21.4 µM (inactive) |
| N[C@]1(C(=O)O)C[C@@H]2C(Br)=NO[C@@H]2C1 | > 100 µM (inactive) | > 100 µM (inactive) |  | > 100 µM (inactive) | 76.9 µM | > 100 µM (inactive) | > 100 µM (inactive) | > 100 µM (inactive) | > 100 µM (inactive) | > 100 µM (inactive) | > 100 µM (inactive) | > 100 µM (inactive) | > 100 µM (inactive) | > 100 µM (inactive) | > 100 µM (inactive) | > 100 µM (inactive) |  | > 100 µM (inactive) | > 100 µM (inactive) | > 100 µM (inactive) |
| O=c1cc(O)c2ccccc2o1 [4-HYDROXYCOUMARINS] | > 100 µM (inactive) | > 100 µM (inactive) | > 100 µM (inactive) | > 100 µM (inactive) |  | > 100 µM (inactive) | > 100 µM (inactive) | > 100 µM (inactive) | > 100 µM (inactive) | > 100 µM (inactive) | > 100 µM (inactive) | > 100 µM (inactive) | > 100 µM (inactive) | > 100 µM (inactive) | > 100 µM (inactive) | > 100 µM (inactive) | > 100 µM (inactive) | > 100 µM (inactive) | > 100 µM (inactive) | > 100 µM (inactive) |
